Test results published in ChEMBL document CHEMBL5608184, “Discovery and mechanistic insights into thieno[3,2-d]pyrimidine and heterocyclic fused pyrimidines inhibitors targeting tubulin for cancer therapy” (Eur J Med Chem, 2024).
Calls of active or inactive are those of the source. The rule behind the calls is not given here.

What was measured:
[1] = system: A549; assay: cells; conditions: Homo sapiens, A549, 48 h
Description: Antiproliferative activity against human A549 cells incubated for 48 hrs by CCK8 assay

[2] = system: A2780; assay: Antiproliferative activity against human A2780 cells incubated for 48 hrs by CCK8 assay; type: functional, cell-based; conditions: A2780, 48 h
[3] = system: SK-OV-3; assay: Antiproliferative activity against human SK-OV-3 cells incubated for 48 hrs by CCK8 assay; type: functional, cell-based; conditions: SK-OV-3, 48 h
[4] = system: HCC827; assay: Antiproliferative activity against human HCC827 cells incubated for 48 hrs by CCK8 assay; type: functional, cell-based; conditions: HCC827, 48 h
[5] = Antiproliferative activity against Paclitaxel-resistant human A2780 cells incubated for 48 hrs by CCK8 assay; type: functional, cell-based; conditions: Paclitaxel-resistant A2780, 48 h
[6] = molecular target: Tubulin (Homo sapiens) (UniProt P68371+Q9H4B7+P0DPH7+P68366+Q13509+Q71U36+P04350+Q3ZCM7+P07437+P68363+Q9BQE3+Q6PEY2+Q13885+Q9BVA1+Q9BUF5); assay: Inhibition of tubulin polymerization in human SK-OV-3 assessed as disruption of microtubule organization at 2 nM incubated for 24 hrs by immunofluorescence based analysis; type: cell-based
[7] = species: Sus scrofa; assay: Inhibition of porcine brain tubulin polymerization at 10 uM measured for 60 min by fluorescence based assay
[8] = system: SK-OV-3; assay: Induction of cell cycle arrest at G2/M phase in human SK-OV-3 cells at 5 nM incubated for 24 hrs by PI staining based flow cytometry (reference value: 30.13 %); type: functional
[9] = system: SK-OV-3; assay: Induction of apoptosis in human SK-OV-3 cells assessed as late apoptotic cells at 5 nM incubated for 48 hrs by Annexin V-APC-A/7-AAD-A staining based flow cytometry (reference value: 1.22 %); type: functional
[10] = system: SK-OV-3; assay: Induction of apoptosis in human SK-OV-3 cells assessed as necrotic cells at 5 nM incubated for 48 hrs by Annexin V-APC-A/7-AAD-A staining based flow cytometry (reference value: 0.21 %); type: functional
[11] = system: SK-OV-3; assay: Induction of apoptosis in human SK-OV-3 cells assessed as early apoptotic cells at 5 nM incubated for 48 hrs by Annexin V-APC-A/7-AAD-A staining based flow cytometry (reference value: 1.10 %); type: functional
[12] = system: SK-OV-3; assay: Induction of apoptosis in human SK-OV-3 cells assessed as early apoptotic cells at 5 nM incubated for 48 hrs by Annexin V-APC-A/7-AAD-A staining based flow cytometry (reference value: 1.12 %); type: functional
[13] = system: SK-OV-3; assay: Induction of apoptosis in human SK-OV-3 cells assessed as viable cells at 5 nM incubated for 48 hrs by Annexin V-APC-A/7-AAD-A staining based flow cytometry (reference value: 97.17 %); type: functional; conditions: read-out: Activity
[14] = system: SK-OV-3; assay: Induction of cell cycle arrest at G2/M phase in human SK-OV-3 cells at 5 nM incubated for 24 hrs by PI staining based flow cytometry (reference value: 29.73 %); type: functional
[15] = system: SK-OV-3; assay: Induction of apoptosis in human SK-OV-3 cells assessed as necrotic cells at 5 nM incubated for 48 hrs by Annexin V-APC-A/7-AAD-A staining based flow cytometry (reference value: 0.48 %); type: functional
[16] = system: SK-OV-3; assay: Induction of apoptosis in human SK-OV-3 cells assessed as late apoptotic cells at 5 nM incubated for 48 hrs by Annexin V-APC-A/7-AAD-A staining based flow cytometry (reference value: 1.20 %); type: functional
[17] = system: SK-OV-3; assay: Induction of apoptosis in human SK-OV-3 cells assessed as viable cells at 5 nM incubated for 48 hrs by Annexin V-APC-A/7-AAD-A staining based flow cytometry (reference value: 97.50 %); type: functional; conditions: read-out: Activity
[18] = molecular target: Tubulin; assay: Binding affinity to CM5-chip immobilized tubulin (unknown origin) assessed as dissociation constant by SPR analysis; type: protein-complex assay, Homo sapiens

IC50 [1] | IC50 [2] | IC50 [3] | IC50 [4] | Structure (SMILES) | further results
699 nM | 307 nM | 58.7 nM | 228 nM | COc1ccc(N(C)c2nc(N3CCC3)nc3ccsc23)cc1 | 
73.2 nM | 30.4 nM | 25.3 nM | 19.8 nM | COc1ccc(N(C)c2nc(NC3CC3)nc3ccsc23)cc1 | 
> 1000 nM | > 1000 nM | > 1000 nM | > 1000 nM | CN(c1ccc(F)cc1)c1nc(Cl)nc2ccsc12 | 
285 nM | 225 nM | 50.7 nM | 130 nM | COc1ccc(N(C)c2nc(N(C)C)nc3ccsc23)cc1 | 
160 nM | 50.9 nM | 52.9 nM | 31.8 nM | CCNc1nc(N(C)c2ccc(OC)cc2)c2sccc2n1 | 
> 1000 nM | > 1000 nM | > 1000 nM | > 1000 nM | COc1ccc(N(C)c2nc(NC3CCCCC3)nc3ccsc23)cc1 | 
207 nM | 61.1 nM | 34.9 nM | 21 nM | COc1ccc(N(C)c2nc(N)nc3ccsc23)cc1 | 
> 1000 nM | > 1000 nM | 741 nM | > 1000 nM | COc1ccc(N(C)c2nc(NC3CCCC3)nc3ccsc23)cc1 | 
6.32 nM | 5.44 nM | 4.95 nM | 5.16 nM | COc1ccc(N(C)c2nc(Cl)nc3sccc23)cc1 | 
120 nM | 73.4 nM | 23.2 nM | 54 nM | COc1ccc(N(C)c2nc(Cl)nc3c2ccn3C)cc1 | 
20.4 nM | 22.6 nM | 9.02 nM | 18.6 nM | COc1ccc(N(C)c2nc(Cl)nc3cc[nH]c23)cc1 | 
> 1000 nM | > 1000 nM | > 1000 nM | > 1000 nM | CN(c1ccc(C(F)F)cc1)c1nc(Cl)nc2ccsc12 | 
388 nM | 225 nM | 46.9 nM | 140 nM | COc1cccc(N(C)c2nc(Cl)nc3ccsc23)c1 | 
8.63 nM | 7.26 nM | 5.83 nM | 8.55 nM | COc1ccc(N(C)c2nc(Cl)nc3ccsc23)cc1 | Kd [18]: 29700 nM
> 1000 nM | > 1000 nM | > 1000 nM | > 1000 nM | COc1ccc(N(C)c2nc(N3CCCC3)nc3ccsc23)cc1 | 
211 nM | 119 nM | 91.9 nM | 113 nM | COc1ccc(N(C)c2nc(NC3CCC3)nc3ccsc23)cc1 | 
601 nM | 393 nM | 101 nM | 346 nM | CN(c1ccc(OC(F)(F)F)cc1)c1nc(Cl)nc2ccsc12 | 
88.1 nM | 77.8 nM | 44.9 nM | 49.2 nM | COc1ccc(N(C)c2ncnc3ccsc23)cc1 | 
> 1000 nM | > 1000 nM | > 1000 nM | > 1000 nM | COc1ccc(N(C)c2nc(N3CCN(C)CC3)nc3ccsc23)cc1 | 
14.8 nM | 15.7 nM | 6.22 nM | 9.02 nM | COc1ccc(N(C)c2nc(C)nc3ccsc23)cc1 | 

Further lines, the compound ahead of its results:

Structure (SMILES) | IC50 [1] | IC50 [2] | IC50 [3] | IC50 [4] | further results
COc1ccc(N(C)c2nc(Cl)nc3ccccc23)cc1 | 1.28 nM | 1.08 nM | 0.78 nM | 1.25 nM | 
COc1cc(OC)cc(N(C)c2nc(Cl)nc3ccsc23)c1 | 785 nM | 651 nM | 265 nM | 431 nM | 
CC(=O)O[C@H]1C(=O)[C@@]2(C)[C@H]([C@H](OC(=O)c3ccccc3)[C@]3(O)C[C@H](OC(=O)[C@H](O)[C@@H](NC(=O)c4ccccc4)c4ccccc4)C(C)=C1C3(C)C)[C@]1(OC(C)=O)CO[C@@H]1C[C@@H]2O [PACLITAXEL] | 3.12 nM | 1.31 nM | 1.19 nM | 1.25 nM | IC50 [5]: 3820 nM; inhibition [6]: inactive; inhibition [7]: inactive
COc1ccc(N(C)c2nc(Cl)nc3ccsc23)cc1F | 2.57 nM | 3.16 nM | 2.06 nM | 1.65 nM | 
Cc1nn(C)c2ccc(N(C)c3nc(Cl)nc4ccsc34)cc12 | 27.6 nM | 28 nM | 14.1 nM | 19.8 nM | 
CN(c1ccc2c(c1)OCO2)c1nc(Cl)nc2ccsc12 | 634 nM | 410 nM | 172 nM | 308 nM | 
COc1ccc(N(C)c2nc(Cl)nc3ccoc23)cc1 | 9.05 nM | 6.28 nM | 2.86 nM | 4.64 nM | 
CN(c1ccccc1)c1nc(Cl)nc2ccsc12 | > 1000 nM | > 1000 nM | > 1000 nM | > 1000 nM | 
COc1cc2c(c(OC)c1OC)-c1ccc(OC)c(=O)cc1[C@@H](NC(C)=O)CC2 [COLCHICINE] |  | 12.4 nM | 10.2 nM | 9.31 nM | Activity [8]: 34.8%; Activity [9]: 2.01%; IC50 [5]: 500 nM; Activity [10]: 0.38%; Activity [11]: 2.15%; Activity [12]: 1.47%; viability at 0.005 µM [13]: 96.2%; Activity [14]: 34.38%; Activity [15]: 0.28%; Activity [16]: 1.53%; viability at 0.005 µM [17]: 95.9%
COc1cc(N(C)c2nc(Cl)nc3ccsc23)cc(OC)c1OC | > 1000 nM | > 1000 nM | > 1000 nM | > 1000 nM | 
COc1ccc(N(C)c2nc(Cl)nc3[nH]ccc23)cc1 | 588 nM | 225 nM | 39.2 nM | 225 nM | 
COc1ccc(/C=C\c2cc(OC)c(OC)c(OC)c2)cc1O [COMBRETASTATIN A4] | 2.57 nM | 2.15 nM | 1.42 nM | 2.25 nM | 
COc1ccc2c(c1)CCCN2c1nc(Cl)nc2ccsc12 | 5.13 nM | 4.68 nM | 2.72 nM | 2.25 nM | 
CN(c1ccc(C(F)(F)F)cc1)c1nc(Cl)nc2ccsc12 | > 1000 nM | > 1000 nM | > 1000 nM | > 1000 nM | 
COc1ccc(Sc2nc(Cl)nc3ccsc23)cc1 | 78.1 nM | 31.1 nM | 38 nM | 29.4 nM | 
COc1ccc2c(c1)CCN2c1nc(Cl)nc2ccsc12 | > 1000 nM | > 1000 nM | > 1000 nM | > 1000 nM | 
COc1ccc(Oc2nc(Cl)nc3ccsc23)cc1 | > 1000 nM | > 1000 nM | > 1000 nM | > 1000 nM | 
COc1ccc(Nc2nc(Cl)nc3ccsc23)cc1 | > 1000 nM | > 1000 nM | > 1000 nM | > 1000 nM | 
COc1c(F)cc(N(C)c2nc(Cl)nc3ccsc23)cc1F | 238 nM | 119 nM | 31.6 nM | 52 nM | 
CN(c1ccc2c(ccn2C)c1)c1nc(Cl)nc2ccsc12 | 1.72 nM | 1.56 nM | 1.22 nM | 1.56 nM | 
